Laboratory results reported in the NIST ThermoML archive (doi:10.1016/j.fluid.2008.07.003).

Details: Liquid

FCC(F)(F)F [1,1,1,2-tetrafluoroethane]
Details | vapor or sublimation pressure [kPa]
283.15 K | 416
293.15 K | 572.4
303.15 K | 771.5
313.15 K | 1017.5
323.15 K | 1318.8
333.15 K | 1681.6
343.15 K | 2114.5
353.15 K | 2629
